According to US20250034171A1, “IMIDAZOPYRIDINE AMIDES AND RELATED COMPOUNDS FOR USE IN THE TREATMENT OF BACTERIAL INFECTIONS” (priority 2021, published 2025):
≈ marks a conversion by molar mass, not a printed value. Like-named read-outs stand apart in the source and are kept apart here.

Test system: Mycobacterium tuberculosis strain H37Rv
Assay: Test 2: MIC determination against M. tuberculosis, resazurin fluorescence
Format: cell-based
Conditions: Test 2, M. tuberculosis H37Rv; for MIC90: read-out: Bacterial activity MIC90; for IC50: read-out: Bacterial activity pMIC50 (converted)
[1] = Mycobacterium tuberculosis, H37RV

SMILES | MIC90 [1] [µM] | IC50 [1] [pM] | Bacterial activity pMIC50 | MIC90 [µM]
O=C(NCc1ccc(-c2nc3n(n2)CC[C@@H](C(F)(F)F)C3)cc1)c1c(C(F)(F)F)nc2n1CCCC2 [Compound 54] | 0.22 (≈ 0.113 µg/mL) | 72400 |  | 
CCc1nc2ccccn2c1C(=O)NCc1ccc(-c2nc3n(n2)CC[C@@H](C(F)(F)F)C3)cc1 [Compound 55] | 0.0086 (≈ 0.00403 µg/mL) | 2950 |  | 
CCc1nc2ccccn2c1C(=O)NCc1ccc(-c2nc3n(n2)CC[C@H](C(F)(F)F)C3)cc1 [Compound 57] | 0.022 (≈ 0.0103 µg/mL) | 6920 |  | 
O=C(NCc1ccc(-c2nc3n(n2)CC[C@H](C(F)(F)F)C3)cc1)c1c(C(F)(F)F)nc2n1CCCC2 [Compound 58] | 0.39 (≈ 0.2 µg/mL) | 95500 |  | 
O=C(NCc1ccc(-c2nc3n(n2)CC[C@H](C(F)(F)F)C3)cc1)c1c(C(F)F)nc2ccccn12 [Compound 60] | 0.067 (≈ 0.0329 µg/mL) | 17400 |  | 
O=C(NCc1ccc(-c2nc3n(n2)CC[C@@H](C(F)(F)F)C3)cc1)c1c(C(F)F)nc2ccccn12 [Compound 61] | 0.036 (≈ 0.0177 µg/mL) | 11000 |  | 
CCc1nc2ccc(C(F)(F)F)cn2c1C(=O)NCc1ccc(-c2nc3n(n2)CC[C@@H](C(F)(F)F)C3)cc1 [Compound 63] | > 0.46 | > 224000 |  | 
CCc1nc2ccc(C(F)(F)F)cn2c1C(=O)NCc1ccc(-c2nc3n(n2)CC[C@H](C(F)(F)F)C3)cc1 [Compound 64] | > 0.5 | > 501000 |  | 
CCc1nc2ncc(OC(F)(F)F)cn2c1C(=O)NCc1ccc(-c2nc3n(n2)CC[C@H](C(F)(F)F)C3)cc1 [Compound 84] | > 0.38 | > 93300 |  | 
CCc1nc2ncc(OC(F)(F)F)cn2c1C(=O)NCc1ccc(-c2nc3n(n2)CC[C@@H](C(F)(F)F)C3)cc1 [Compound 85] | > 0.5 | > 501000 |  | 
CCc1nc2ncccn2c1C(=O)NCc1ccc(-c2nc3n(n2)CC[C@@H](C(F)(F)F)C3)c(C)c1 [Compound 86] |  |  | 6.98 | 0.44 (≈ 0.213 µg/mL)
CCc1nc2ncccn2c1C(=O)NCc1ccc(-c2nc3n(n2)CC[C@H](C(F)(F)F)C3)c(C)c1 [Compound 87] |  |  | 6.97 | 0.47 (≈ 0.227 µg/mL)
CCc1nc2ncc(C)cn2c1C(=O)NCc1ccc(-c2cn3c(n2)CCCC3)cc1 [Compound 88] | 0.099 (≈ 0.041 µg/mL) | 37200 |  | 
CCc1nc2nc(C)c(Cl)cn2c1C(=O)NCc1ccc(-c2cn3c(n2)CC(C(F)(F)F)CC3)cc1 (stereo not drawn) [Compound 90] | 0.15 (≈ 0.0775 µg/mL) | 60300 |  | 
CCc1nc2nc(C)ccn2c1C(=O)NCc1ccc(-c2nc3n(n2)CCC(C)C3)cc1 (stereo not drawn) [Compound 92] | 0.2 (≈ 0.0859 µg/mL) | 61700 |  | 
CCc1nc2ncc(C)cn2c1C(=O)NCc1ccc(-c2nc3n(n2)CCC(F)C3)cc1 (stereo not drawn) [Compound 96] | 0.094 (≈ 0.0407 µg/mL) | 33900 |  | 
CCc1nc2ncc(C)cn2c1C(=O)NCc1ccc(-c2nc3n(n2)CCC(C)C3)c(F)c1 (stereo not drawn) [Compound 97] | 0.057 (≈ 0.0255 µg/mL) | 19100 |  | 
CCOC1CCn2nc(-c3ccc(CNC(=O)c4c(CC)nc5ncc(C)cn45)cc3)nc2C1 (stereo not drawn) [Compound 98] | 0.11 (≈ 0.0506 µg/mL) | 27500 |  | 
CCc1nc2nc(C)ccn2c1C(=O)NCc1ccc(-c2nc3n(n2)CCC(C(F)F)C3)cc1 (stereo not drawn) [Compound 99] | 0.22 (≈ 0.102 µg/mL) | 70800 |  | 
Cc1cnc2nc(C(C)C)c(C(=O)NCc3ccc(-c4cn5c(n4)CC(C(F)(F)F)CC5)cc3)n2c1 (stereo not drawn) [Compound 100] | 0.2 (≈ 0.0993 µg/mL) | 61700 |  | 
O=C(NCc1cnc(-c2cn3c(n2)CC(C(F)(F)F)CC3)c(F)c1)c1c(C(F)(F)F)nc2ccccn12 (stereo not drawn) [Compound 101] | 3.95 (≈ 2.08 µg/mL) | 2e+06 |  | 
CCc1nc2ncc(C)cn2c1C(=O)NCc1ccc(-c2nc3n(n2)CCC(OC)C3)c(F)c1 (stereo not drawn) [Compound 107] | 0.33 (≈ 0.153 µg/mL) | 135000 |  | 
CCc1nc2ncc(C)cn2c1C(=O)NCc1ccc(-c2cn3c(n2)CC(CC)CC3)cc1 (stereo not drawn) [Compound 109] |  |  | 8.04 | 0.024 (≈ 0.0106 µg/mL)
CCc1nc2ncc(C)cn2c1C(=O)NCc1ccc(-c2nc3n(n2)CCC(CC(F)(F)F)C3)cc1 (stereo not drawn) [Compound 110] | 0.016 (≈ 0.00796 µg/mL) | 5890 |  | 
CCc1nc2ncc(OC)cn2c1C(=O)NCc1ccc(-c2cn3c(n2)C[C@H](C(F)(F)F)CC3)cc1 [Compound 111] | 0.012 (≈ 0.00598 µg/mL) | 4680 |  | 
CCc1nc2ncc(OC)cn2c1C(=O)NCc1ccc(-c2cn3c(n2)C[C@@H](C(F)(F)F)CC3)cc1 [Compound 112] | 0.027 (≈ 0.0135 µg/mL) | 8510 |  | 
CCc1nc2cc(F)ccn2c1C(=O)NCc1ccc(-c2cn3c(n2)C[C@@H](C(F)(F)F)CC3)cc1 [Compound 113] | 0.034 (≈ 0.0165 µg/mL) | 12900 |  | 
CCc1nc2cc(F)ccn2c1C(=O)NCc1ccc(-c2cn3c(n2)C[C@H](C(F)(F)F)CC3)cc1 [Compound 114] | 0.032 (≈ 0.0155 µg/mL) | 7590 |  | 
CCc1nc2ncc(C)cn2c1C(=O)NCc1ccc(-c2nc3n(n2)CCC(C)(COC)C3)cc1 (stereo not drawn) [Compound 115] | 0.096 (≈ 0.0455 µg/mL) | 24500 |  | 
CCc1nc2ncc(C)cn2c1C(=O)NCc1ccc(-c2cn3c(n2)CCC(C(F)(F)F)C3)cc1 (stereo not drawn) [Compound 116] | 0.0097 (≈ 0.00468 µg/mL) | 4570 |  | 
